# Source: patent publication US20240207254A1, “METHODS FOR TITRATING MITAPIVAT” (Agios Pharmaceuticals, Inc., priority 2021, published 2024)
# Test: phase 2 study: sudden withdrawal or missed doses of mitapivat, acute hemolysis
# Assay type: in vivo, human
# Method: Clinical studies have also shown that acute hemolysis with subsequent anemia can occur following abrupt interruption or discontinuation of mitapivat. […] For example, in a phase 2 study with 300 mg of mitapivat dosed twice daily, 3.8% of subjects experienced hemolysis upon sudden withdrawal of mitapivat, including 1 serious adverse event of acute hemolysis. […] Although the exact risk factors which make someone susceptible to acute hemolysis cannot be determined, it appears that the rapid loss of hemoglobin is an issue for these cases. Given the uncertainty as to who is likely to experience signs or symptoms of acute hemolysis (or subsequent anemia), it is important to develop means for mitigating such events.
smiles,measurement,setting,value
"O=C(c1ccc(NS(=O)(=O)c2cccc3cccnc23)cc1)N1CCN(CC2CC2)CC1 [mitapivat, N-(4-(4-(cyclopropylmethyl)piperazine-1-carbonyl)phenyl)quinoline-8-sulfonamide]",events indicative of acute hemolysis after missed doses,patients who missed only a few doses later in their treatment course,did not experience events indicative of acute hemolysis
same,subjects who experienced hemolysis upon sudden withdrawal of mitapivat,"phase 2 study, 300 mg mitapivat dosed twice daily, sudden withdrawal",3.8%
same,serious adverse event of acute hemolysis (number of events),"phase 2 study, 300 mg twice daily, sudden withdrawal, included in the 3.8%",1
